The record followed here is patent US5656591A, “Antimicrobial agents and method for treating products therewith” (Morinaga Milk Industry Co., Ltd., priority 1992, dated 1997).

The test system of assay [1] is Staphylococcus aureus JCM2151. As to the kind of experiment: Test for antimicrobial activity (turbidity): growth inhibiting concentration of antibiotics. It counts as cell-based. The settings on record: for MIC: Staphylococcus aureus. How it is done:
(§1) Precultures of test microorganisms to be used in the tests described hereunder were prepared in such a manner that: from the frozen preservation of dispersions of test microorganisms, a loop of the respective strains of the microorganisms were taken out and spread onto TRI PETIT CASE SOYA AGAR MEDIA (by BBL Company), and incubated at 37° C. for 16 hours; the colonies grown on the culture media were scraped by a platinum loop and cultivated in 2.1% Mueller-Hington Broth (by Difco Company) respectively for several hours at 37° C. The resultant microbial cultures at logarithmic phase in 3×10^8 /ml of microbial concentration were used as the precultures.
(§2) The test media to be used in the respective tests were prepared in such a manner that: aqueous solutions in a predetermined concentration of the lactoferrin hydrolysates or the lactoferrin-derived antimicrobial peptides of (1) and (2) in Preparation of Samples (supra), as well as the samples of antibiotics of (3) (supra) were respectively sterilized with filters (by Advantec Company); then a quantity of the resultant solutions of respective samples were selectively added to a quantity of basal medium (Mueller-Hington Broth) prepared in the eventual concentration of 2.1%, thereby combinations of the samples and their concentrations in the respective test media were adjusted as specified in the respective tests.
(§3) Antimicrobial activity was examined as follows: A quantity of the respective precultures prepared in (1) immediately above was diluted with 2.1% Mueller-Hington Broth to result in 2×10^6 /ml of microbial concentration; 100 μl aliquots of the resultant liquid were added to 100 μl aliquots of one of the test media as specified in the respective test; the resultant media were incubated at 37° C. for 16 hours; then the turbidity of the resultant culture broths were measured thereby antimicrobial activity was examined.
(§4) Components in the test and control media and eventual concentrations thereof were adjusted by properly combining 0 mg, 0.4 mg, 1.6 mg and 6.4 mg/ml of lactoferrin hydrolysate of (1) (in Preparation of Samples, supra). or 0 μg, 16 μg, 64 μg, and 256 μg/ml of lactoferrin-derived antimicrobial peptides of (2) (in Preparation of Samples, supra), and 0 μg, 0.01 μg, 0.1 μg, 1 μg, and 10 μg/ml of antibiotics of (3) (supra), then antimicrobial activity of the combined use of the components against Escherichia coli 0-111 and Staphylococcus aureus (JCM2151) as well as growth inhibiting concentrations of the antibiotics were investigated.

For the next assay, the system named is Escherichia coli 0-111. The assay is described as above. Type of assay: cell-based. How it is done: as §1, §2, §3, §4
In assay [2] the test system is Staphylocoecus aureus (JCM-2151). The assay can be described thus: Viability assay in Mueller-Hington Broth. Type of assay: cell-based, Staphylococcus aureus. How it is done:
as §1
as §2, with “tests. […]” for “tests.”

Assay [3] has as its system methicillin-resistant Staphylococcus aureus (wild type). The assay can be described thus: Viability assay in Mueller-Hington Broth on antibiotics-resistant microorganism. It counts as cell-based. The method, then:
as §1
as §2, with “tests. […]” for “tests.”

Assay [4] relates to Staphylococcus aureus (JCM-2151). As to the kind of experiment: Viability assay (survival rate) in cow's milk medium. Type of assay: cell-based. Also noted: key to survival rate: % of control colony count 1 (control colony count 2 at peptide 0). As to conditions: for antimicrobial activity of the compound added without antimicrobial peptide or lactoferrin hydrolysate (in words): compound alone; for effect of the coexisting compound on the antimicrobial activity of the antimicrobial peptide (in words): with antimicrobial peptide Seq. ID No. 26. The method, then:
The colonies grown on the culture medium were scraped by a platinum loop and cultivated in 1% peptone (by Difco Company) culture medium for several hours at 37° C., and the resultant microbial culture at logarithmic phase was used as the preculture in a serial concentration of 3×10^8 /ml.
A quantity of the resultant solutions of the samples were selectively mixed with a quantity of the basal medium, thereby test media for the respective tests were prepared in the combinations and eventual concentrations as specified in the respective tests.
Utilizing the samples (5), (7), (8), (9), (10), (14), (15), (17), (18) and (19), test media were prepared in the same manner as in the preparation of the test media containing sample (3) and the like, except that the aqueous solution (in the cases of samples (5) and (7), aqueous suspensions) were not dealt with sterilization filters.
To 2 ml aliquots of test media prepared in (3-1) (supra), […] aliquots of the preculture of Staphylococcus aureus prepared in (1) (2. Method, supra) were added, then incubated at 37° C. for 1 hour, 200 μl aliquots of the resultant cultures were taken out and diluted with 1% peptone solution in a series of 10^n respectively, 110 μl aliquots of the resultant dilution series were spread onto plates of standard agar culture medium, and after incubation at 37° C. for 24 hours the number of colonies grown on the plates were counted (Test. Colony Count).
Control coloney counts 1 were determined in the same manner as in the determination of the test coloney counts, except that […] aliquots of the preculture of Staphylococcus aureus prepared in (1) (2. Method, supra) were added to 2 ml aliquots of the respective control media 1 prepared in (3-2) (supra). Furthermore, control coloney counts 2 were determined in the same manner as in the determination of the test coloney counts, except that […] aliquots of the preculture of Staphylococcus aureus prepared in (1) (supra) were added to 2 ml aliquots of the respective control media 1 prepared in (3-2) (supra).
Survival rate 1=(Test Colony Count/Control Colony Count 1)×100
Survival rate 2=(Control Colony Count 2/Control Colony Count 1)×100
(Note: In the tables shown hereinafter, vulues of survival rate 2 are indicated in the row where the concentration of antimicrobial peptide or lactoferrin hydrolysate is 0.)

[5] abbreviates: JCM2151, antimicrobial peptide (Seq. ID No. 27) 0 μg/ml.
Where [6] appears, read: JCM2151, antimicrobial peptide (Seq. ID No. 27) 16 μg/ml.
The mark [7] stands for this setting: JCM2151, antimicrobial peptide (Seq. ID No. 27) 64 μg/ml.
Setting [8] is: JCM2151, antimicrobial peptide (Seq. ID No. 27) 256 μg/ml.
The mark [9] stands for this setting: lactoferrin hydrolysate 0 mg/ml.
Where [10] appears, read: lactoferrin hydrolysate 0.4 mg/ml.
The mark [11] stands for this setting: lactoferrin hydrolysate 1.6 mg/ml.
Where [12] appears, read: lactoferrin hydrolysate 6.4 mg/ml.
Setting [13] is: Escherichia coli, 0111, antimicrobial peptide (Seq. ID No. 27) 0 μg/ml.
Where [14] appears, read: Escherichia coli, 0111, antimicrobial peptide (Seq. ID No. 27) 16 μg/ml.
[15] abbreviates: Escherichia coli, 0111, antimicrobial peptide (Seq. ID No. 27) 64 μg/ml.
Where [16] appears, read: Escherichia coli, 0111, antimicrobial peptide (Seq. ID No. 27) 256 μg/ml.

A value given as a limit tells only on which side of the number the result lay.

With `[H]/N=C(/N)N[C@H]1[C@H](O)[C@@H](O)[C@H](O[C@@H]2O[C@@H](C)[C@](O)(C=O)[C@H]2O[C@@H]2O[C@@H](CO)[C@H](O)[C@@H](O)[C@@H]2NC)[C@@H](N/C(N)=N\[H])[C@@H]1O` [streptomycin], the MIC in assay [1] (setting [5]) was > 1 µg/mL; in assay [1] (setting [6]) it was > 1 µg/mL; in assay [1] (setting [7]) it was 1 µg/mL; in assay [1] (setting [8]) it was 0.01 µg/mL; with Escherichia coli 0-111 (setting [13]) it was > 1 µg/mL; in the assay with Escherichia coli 0-111 (setting [14]), > 1 µg/mL. Besides, the MIC is 1 µg/mL in the assay with Escherichia coli 0-111 (setting [15]) and 0.01 µg/mL with Escherichia coli 0-111 (setting [16]). Further, the “Growth inhibiting Concentration of antibiotics” value (“Growth inhibiting Concentration” below) is > 1 µg/mL in assay [1] (setting [9]); > 1 µg/mL in assay [1] (setting [10]); 1 µg/mL in assay [1] (setting [11]); 0.1 µg/mL in assay [1] (setting [12]); > 1 µg/mL in the assay on Escherichia coli 0-111 (setting [9]); > 1 µg/mL with Escherichia coli 0-111 (setting [10]). For the same compound, the results for the “Growth inhibiting Concentration” value in the assay on Escherichia coli 0-111 (setting [11]) and in the assay on Escherichia coli 0-111 (setting [12]) were 1 µg/mL and 0.01 µg/mL, respectively. The survival rate in assay [2] (Test 25: streptomycin 1 μg/ml alone (control row)) was 12.4%.
Turning to `CN(C)c1ccc(O)c2c1C[C@H]1C[C@H]3[C@H](N(C)C)C(O)=C(C(N)=O)C(=O)[C@@]3(O)C(O)=C1C2=O` [minomycin], the survival rate in assay [3] (Test 24: peptide 0, minomycin 10 μg/ml) was 32%; in assay [3] (Test 24: peptide 0, minomycin 50 μg/ml) it was 5.2%.
Regarding `CCCCCCCCCCCCCCCCCC(=O)OCC(O)CO` (racemic) [1-monostearoyl-rac-glycerol], the survival rate turned out to be 116% in assay [4] (Test 19: peptide 0, 1-monostearoyl-rac-glycerol 0.5 mg/ml); 133% in assay [4] (Test 19: peptide 0, 1-monostearoyl-rac-glycerol 1 mg/ml); 98% in assay [4] (Test 19: peptide 0, 1-monostearoyl-rac-glycerol 2 mg/ml). Further, in assay [4], the “antimicrobial activity of the compound added without antimicrobial peptide or lactoferrin hydrolysate (in words)” value was “no antimicrobial activity was observed”. The “effect of the coexisting compound on the antimicrobial activity of the antimicrobial peptide (in words)” value in assay [4] is “augments the antimicrobial activity of the antimicrobial peptide”.
Take `CC1(C)S[C@@H]2[C@H](NC(=O)Cc3ccccc3)C(=O)N2[C@H]1C(=O)O` [penicillin]: the minimum inhibitory concentration (MIC) is > 1 µg/mL in assay [1] (setting [5]); 1 µg/mL in assay [1] (setting [6]); 1 µg/mL in assay [1] (setting [7]); 0.1 µg/mL in assay [1] (setting [8]); > 1 µg/mL in the assay on Escherichia coli 0-111 (setting [13]); > 1 µg/mL with Escherichia coli 0-111 (setting [14]). Moreover, the MIC in the assay on Escherichia coli 0-111 (setting [15]) worked out at 1 µg/mL; in the assay with Escherichia coli 0-111 (setting [16]), 0.1 µg/mL. The “Growth inhibiting Concentration” value was > 1 µg/mL in assay [1] (setting [9]); 1 µg/mL in assay [1] (setting [10]); 1 µg/mL in assay [1] (setting [11]); 0.1 µg/mL in assay [1] (setting [12]); > 1 µg/mL in the assay on Escherichia coli 0-111 (setting [9]); 1 µg/mL with Escherichia coli 0-111 (setting [10]). Moreover, the “Growth inhibiting Concentration” value with Escherichia coli 0-111 (setting [11]) stood at 1 µg/mL; in the assay on Escherichia coli 0-111 (setting [12]), 0.1 µg/mL. Besides, the survival rate in assay [2] (Test 25: penicillin 1 μg/ml alone (control row)) was 14.2%.
For the compound `OCC(O)CO` [glycerol, Glycerol], in assay [4], the “antimicrobial activity of the compound added without antimicrobial peptide or lactoferrin hydrolysate (in words)” value is given as “no antimicrobial activity was observed” and the “effect of the coexisting compound on the antimicrobial activity of the antimicrobial peptide (in words)” value is listed as “augments the antimicrobial activity of the peptide”.
Turning to Polyphosphoric Acid, the survival rate in assay [4] (Test 12: lactoferrin hydrolysate 0, polyphosphoric acid 0.1 mg/ml) was found to be 140; in assay [4] (Test 12: lactoferrin hydrolysate 0, polyphosphoric acid 1 mg/ml), 124; in assay [4] (Test 12: lactoferrin hydrolysate 0, polyphosphoric acid 5 mg/ml) it was 111. Also, the “antimicrobial activity of the compound added without antimicrobial peptide or lactoferrin hydrolysate (in words)” value in assay [4] is on record as “no antimicrobial activity was observed”. Further, the “effect of the coexisting compound on the antimicrobial activity of the lactoferrin hydrolysate (in words)” value in assay [4] (with lactoferrin hydrolysate 1) was “augments the antimicrobial activity of the lactoferrin hydrolysate 1”.

The term MIC denotes the lowest concentration found to suppress growth.
